Assay results: paper PMC5569448 (Iranian Journal of Basic Medical Sciences, 2017)

Legend:
Type in all cases: biochemical
[1] = molecular target: butyrylcholinesterase (BuChE) (Homo sapiens, UniProt P06276); experiment: BuChE inhibition by Ellman's method; conditions: for inhibition at 35 µM: read-out: BuChE % inhibition
[2] = molecular target: acetylcholinesterase (AChE) (Homo sapiens, UniProt P22303); experiment: AChE inhibition by Ellman's method; conditions: for inhibition at 35 µM: read-out: AChE % inhibition
acetylcholinesterase (AChE), sequence (P22303 32-614, species assumed): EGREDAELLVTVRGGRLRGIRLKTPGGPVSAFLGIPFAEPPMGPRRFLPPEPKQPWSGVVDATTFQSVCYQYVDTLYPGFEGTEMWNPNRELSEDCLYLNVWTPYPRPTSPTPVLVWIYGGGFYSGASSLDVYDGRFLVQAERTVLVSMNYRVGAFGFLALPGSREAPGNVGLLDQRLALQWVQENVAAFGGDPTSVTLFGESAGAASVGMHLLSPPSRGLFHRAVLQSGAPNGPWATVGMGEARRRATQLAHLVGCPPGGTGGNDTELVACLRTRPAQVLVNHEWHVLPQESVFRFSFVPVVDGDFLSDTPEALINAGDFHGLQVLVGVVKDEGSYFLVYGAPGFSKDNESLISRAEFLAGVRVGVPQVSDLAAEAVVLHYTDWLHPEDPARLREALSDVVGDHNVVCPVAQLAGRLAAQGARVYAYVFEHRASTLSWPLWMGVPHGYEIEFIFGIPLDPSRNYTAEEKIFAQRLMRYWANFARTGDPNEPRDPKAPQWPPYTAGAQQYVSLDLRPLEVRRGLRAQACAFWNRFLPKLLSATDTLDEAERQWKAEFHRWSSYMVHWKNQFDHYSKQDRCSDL

AChE = AChE (Homo sapiens, UniProt P22303); experiment: Kinetic study of AChE inhibition
AChE, sequence (P22303 32-614, species assumed): as above

butyrylcholinesterase (BuChE), sequence (P06276 29-602): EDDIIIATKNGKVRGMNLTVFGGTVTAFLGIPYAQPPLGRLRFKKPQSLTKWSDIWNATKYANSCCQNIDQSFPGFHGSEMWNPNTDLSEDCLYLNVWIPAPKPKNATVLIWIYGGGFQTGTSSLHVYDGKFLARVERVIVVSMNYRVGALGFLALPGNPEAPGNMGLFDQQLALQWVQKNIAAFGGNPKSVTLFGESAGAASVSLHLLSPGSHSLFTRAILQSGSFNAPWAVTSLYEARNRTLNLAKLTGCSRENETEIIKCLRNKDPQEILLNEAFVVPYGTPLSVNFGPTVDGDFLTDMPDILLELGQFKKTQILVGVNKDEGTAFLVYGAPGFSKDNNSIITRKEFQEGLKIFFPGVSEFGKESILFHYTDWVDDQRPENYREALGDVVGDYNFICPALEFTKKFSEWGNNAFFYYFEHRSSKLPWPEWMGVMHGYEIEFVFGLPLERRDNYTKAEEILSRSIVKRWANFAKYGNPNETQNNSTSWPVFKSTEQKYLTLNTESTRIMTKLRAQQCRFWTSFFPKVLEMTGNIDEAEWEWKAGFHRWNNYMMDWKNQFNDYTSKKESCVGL

SMILES | inhibition at 35 µM [1] | IC50 [2] | inhibition at 35 µM [2] | IC50 [1] | Ki (AChE) | type of AChE inhibition (AChE; Lineweaver-Burk plot, substrate ATChI)
O=c1cc(-c2ccccc2)c2ccc(NCCCSc3nc4ccccc4o3)cc2o1 [Compound 3l, 7-((3-(Benzo[d]oxazol-2-ylthio)propyl)amino)-4-phenyl-2H-chromen-2-one] | 26% | 13 µM |  |  |  | 
CCOC(=O)c1cc2ccc(OCCCCCOc3cccc4cccnc34)cc2oc1=O [Compound 3f, Ethyl 2-oxo-7-((5-(quinolin-8-yloxy)pentyl)oxy)-2H-chromene-3-carboxylate] | 29.2% | 8.94 µM |  |  |  | 
O=C(O)c1cc2ccc(OCCCOc3cccc4cccnc34)cc2oc1=O [Compound 3g, 2-Oxo-7-(3-(quinolin-8-yloxy)propoxy)-2H-chromene-3-carboxylic acid] | 2% |  | 15% |  |  | 
O=c1ccc2ccc(OCCCCCOc3cccc4cccnc34)cc2o1 [Compound 3b, 7-((5-(Quinolin-8-yloxy)pentyl)oxy)-2H-chromen-2-one] |  | 8.8 µM |  | 26.5 µM | 1.32 µM | mixed-type inhibition
Cc1cc(=O)oc2cc(OCCCOc3cccc4cccnc34)ccc12 [Compound 3c, 4-Methyl-7-(3-(quinolin-8-yloxy)propoxy)-2H-chromen-2-one] |  | 11.3 µM |  | 32.4 µM |  | 
O=c1ccc2ccc(OCCCCCSc3nc4ccccc4[nH]3)cc2o1 [Compound 3i, 7-((5-((1H-Benzo[d]imidazol-2-yl)thio)pentyl)oxy)-2H-chromen-2-one] | 38% | 11.7 µM |  |  |  | 
O=c1ccc2ccc(OCCCCOc3cccc4cccnc34)cc2o1 [Compound 3a, 7-(4-(Quinolin-8-yloxy)butoxy)-2H-chromen-2-one] |  |  | 48% | 28.3 µM |  | 
O=c1cc(-c2ccccc2)c2ccc(NCCCOc3cccc4cccnc34)cc2o1 [Compound 3h, 4-Phenyl-7-((3-(quinolin-8-yloxy)propyl)amino)-2H-chromen-2-one] | 37% | 30.2 µM |  |  |  | 
Cc1cc(=O)oc2cc(OCCCSc3nc4ccccc4o3)ccc12 [Compound 3k, 7-(3-(Benzo[d]oxazol-2-ylthio)propoxy)-4-methyl-2H-chromen-2-one] | 11% |  | 44% |  |  | 
Cc1cc(=O)oc2cc(OCCCCCOc3cccc4cccnc34)ccc12 [Compound 3d, 4-Methyl-7-((5-(quinolin-8-yloxy)pentyl)oxy)-2H-chromen-2-one] | 34.6% | 14 µM |  |  |  | 
O=c1ccc2ccc(OCCCCCSc3nc4ccccc4o3)cc2o1 [Compound 3j, 7-((5-(Benzo[d]oxazol-2-ylthio)pentyl)oxy)-2H-chromen-2-one] | 14% | 25.4 µM |  |  |  | 
CCOC(=O)c1cc2ccc(OCCCOc3cccc4cccnc34)cc2oc1=O [Compound 3e, Ethyl 2-oxo-7-(3-(quinolin-8-yloxy)propoxy)-2H-chromene-3-carboxylate] | 46% | 16.2 µM |  |  |  | 
